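48-hour exposure; five concentrations; linearly interpolated endpoints. GI50 = concentration required for 50% inhibition of growth.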 The source made the active and inactive calls. Cut-off read from the data, not from the text of the source: active = GI50 up to about 1.1 µM and inactive = higher.
Assays:
Test in all cases: NCI tumour cell line growth inhibition, 48 h
[1] = system: ACHN
[2] = system: U-251
[3] = system: SF-539
[4] = system: TK-10
[5] = system: SNB-75
[6] = system: HCT-116
[7] = system: Malme-3M
[8] = system: HCT-15
[9] = system: DU-145
[10] = system: KM12
[11] = system: MDA-N
[12] = system: OVCAR-5
[13] = system: MCF7
[14] = system: RPMI-8226
[15] = system: NCI-H23
[16] = system: M14
[17] = system: SN12C
[18] = system: UACC-62
[19] = system: SK-MEL-28
[20] = system: MOLT-4
[21] = system: IGROV-1
[22] = system: BT-549
[23] = system: SK-OV-3
[24] = system: MDA-MB-231
[25] = system: HOP-62
[26] = system: OVCAR-4
[27] = system: 786-0
[28] = system: SF-295
[29] = system: NCI-H226
[30] = system: SK-MEL-5
[31] = system: SW-620
[32] = system: A498
[33] = system: A549
[34] = system: UO-31
[35] = system: LOX IMVI
[36] = system: CAKI-1
[37] = system: OVCAR-3
[38] = system: RXF 393
[39] = system: OVCAR-8
[40] = system: NCI-H460
[41] = system: SNB-19
[42] = system: T47D
[43] = system: PC-3
[44] = system: HL-60
[45] = system: K562
[46] = system: Hs-578T
[47] = system: UACC-257
[48] = system: SF-268
[49] = system: NCI/ADR-RES
[50] = system: SR
[51] = system: MDA-MB-435
[52] = system: SK-MEL-2
[53] = system: COLO 205
[54] = system: HT-29
[55] = system: CCRF-CEM
[56] = system: NCI-H522
[57] = system: EKVX
[58] = system: HCC 2998

C1=CC2(C=CC13O[C@H](C1CCCCC1)[C@@H](C1CCCCC1)O3)O[C@H](C1CCCCC1)[C@@H](C1CCCCC1)O2
GI50 [1]: > 50 µM (inactive) | GI50 [2]: > 50 µM (inactive) | GI50 [3]: > 50 µM (inactive) | GI50 [4]: > 50 µM (inactive) | GI50 [5]: > 50 µM (inactive) | GI50 [6]: > 50 µM (inactive) | GI50 [7]: > 50 µM (inactive) | GI50 [8]: > 50 µM | GI50 [9]: > 50 µM (inactive) | GI50 [10]: > 50 µM (inactive) | GI50 [11]: > 50 µM (inactive) | GI50 [12]: > 50 µM (inactive) | GI50 [13]: > 50 µM (inactive) | GI50 [14]: 23.2 µM (inactive) | GI50 [15]: > 50 µM (inactive) | GI50 [16]: > 50 µM (inactive) | GI50 [17]: > 50 µM (inactive) | GI50 [18]: > 50 µM (inactive) | GI50 [19]: > 50 µM (inactive) | GI50 [20]: > 50 µM (inactive) | GI50 [21]: > 50 µM (inactive) | GI50 [22]: > 50 µM (inactive) | GI50 [23]: > 50 µM (inactive) | GI50 [24]: > 50 µM (inactive) | GI50 [25]: > 50 µM (inactive) | GI50 [26]: > 50 µM (inactive) | GI50 [27]: > 50 µM (inactive) | GI50 [28]: > 50 µM (inactive) | GI50 [29]: > 50 µM (inactive) | GI50 [30]: > 50 µM (inactive) | GI50 [31]: > 50 µM (inactive) | GI50 [32]: > 50 µM (inactive) | GI50 [33]: > 50 µM (inactive) | GI50 [34]: > 50 µM (inactive) | GI50 [35]: > 50 µM (inactive) | GI50 [36]: > 50 µM (inactive) | GI50 [37]: > 50 µM (inactive) | GI50 [38]: > 50 µM (inactive) | GI50 [39]: > 50 µM (inactive) | GI50 [40]: > 50 µM (inactive) | GI50 [41]: > 50 µM (inactive) | GI50 [42]: > 50 µM (inactive) | GI50 [43]: > 50 µM (inactive) | GI50 [44]: > 50 µM (inactive) | GI50 [45]: > 50 µM (inactive) | GI50 [46]: > 50 µM (inactive) | GI50 [47]: > 50 µM (inactive) | GI50 [48]: > 50 µM (inactive) | GI50 [49]: > 50 µM (inactive) | GI50 [50]: > 50 µM (inactive) | GI50 [51]: > 50 µM (inactive) | GI50 [52]: > 50 µM (inactive) | GI50 [53]: > 50 µM (inactive) | GI50 [54]: > 50 µM (inactive)

Cn1c2ccccc2n2c3ncccc3/c(=N/CCCC(=O)O)c(C#N)c12
GI50 [1]: > 100 µM (inactive) | GI50 [2]: > 100 µM (inactive) | GI50 [5]: > 100 µM (inactive) | GI50 [6]: > 100 µM (inactive) | GI50 [7]: > 100 µM (inactive) | GI50 [8]: > 100 µM | GI50 [9]: > 100 µM (inactive) | GI50 [10]: > 100 µM (inactive) | GI50 [11]: > 100 µM (inactive) | GI50 [12]: > 100 µM (inactive) | GI50 [13]: > 100 µM (inactive) | GI50 [14]: > 100 µM (inactive) | GI50 [15]: > 100 µM (inactive) | GI50 [16]: > 100 µM (inactive) | GI50 [17]: > 100 µM (inactive) | GI50 [18]: > 100 µM (inactive) | GI50 [19]: > 100 µM (inactive) | GI50 [55]: > 100 µM (inactive) | GI50 [20]: > 100 µM (inactive) | GI50 [21]: > 100 µM (inactive) | GI50 [22]: > 100 µM (inactive) | GI50 [23]: > 100 µM (inactive) | GI50 [24]: > 100 µM (inactive) | GI50 [25]: > 100 µM (inactive) | GI50 [26]: > 100 µM (inactive) | GI50 [27]: > 100 µM (inactive) | GI50 [28]: > 100 µM (inactive) | GI50 [29]: > 100 µM (inactive) | GI50 [30]: > 100 µM (inactive) | GI50 [31]: > 100 µM (inactive) | GI50 [32]: > 100 µM (inactive) | GI50 [33]: > 100 µM (inactive) | GI50 [34]: > 100 µM (inactive) | GI50 [35]: > 100 µM (inactive) | GI50 [36]: > 100 µM (inactive) | GI50 [56]: > 100 µM (inactive) | GI50 [37]: > 100 µM (inactive) | GI50 [38]: > 100 µM (inactive) | GI50 [39]: > 100 µM (inactive) | GI50 [40]: > 100 µM (inactive) | GI50 [41]: > 100 µM (inactive) | GI50 [57]: > 100 µM (inactive) | GI50 [42]: > 100 µM (inactive) | GI50 [43]: > 100 µM (inactive) | GI50 [44]: > 100 µM (inactive) | GI50 [45]: > 100 µM (inactive) | GI50 [46]: > 100 µM (inactive) | GI50 [48]: > 100 µM (inactive) | GI50 [49]: > 100 µM (inactive) | GI50 [58]: > 100 µM (inactive) | GI50 [50]: > 100 µM (inactive) | GI50 [51]: > 100 µM (inactive) | GI50 [52]: > 100 µM (inactive) | GI50 [53]: > 100 µM (inactive) | GI50 [54]: > 100 µM (inactive)
